For one data set, the target named is T1, purified CK2 holoenzyme (Homo sapiens, UniProt P68400).
T1 construct: purchased Promega, Madison, Wis
Briefly: in vitro kinase assay of purified CK2 holoenzyme. Type of data set: biochemical. Conditions: 10 nM. From the text:
(§1) P=supercoiled plasmid only.

Another data set concerns the target T2, CK2α catalytic subunit (Homo sapiens, UniProt P68400).
T2 construct: purchased Active Motif, Carlsbad, Calif
Briefly: in vitro kinase assay of purified CK2α catalytic subunit. Type of data set: biochemical. Conditions: 10 nM.
Text: as §1

The next data set deals with T3, purified cdk1 (Homo sapiens, UniProt P06493).
T3 construct: purchased Enzo Life Sciences, Farmingdale, N.Y
T3 sequence (P06493 whole entry, species assumed): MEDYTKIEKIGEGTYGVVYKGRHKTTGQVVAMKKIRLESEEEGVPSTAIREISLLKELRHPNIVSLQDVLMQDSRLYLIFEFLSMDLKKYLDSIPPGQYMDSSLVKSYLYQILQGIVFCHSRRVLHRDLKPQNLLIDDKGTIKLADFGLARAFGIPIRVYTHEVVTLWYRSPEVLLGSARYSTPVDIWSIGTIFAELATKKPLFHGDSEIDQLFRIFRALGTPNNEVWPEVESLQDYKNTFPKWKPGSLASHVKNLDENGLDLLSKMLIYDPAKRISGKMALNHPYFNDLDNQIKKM
T3 sequence (P14635 whole entry partner, species assumed): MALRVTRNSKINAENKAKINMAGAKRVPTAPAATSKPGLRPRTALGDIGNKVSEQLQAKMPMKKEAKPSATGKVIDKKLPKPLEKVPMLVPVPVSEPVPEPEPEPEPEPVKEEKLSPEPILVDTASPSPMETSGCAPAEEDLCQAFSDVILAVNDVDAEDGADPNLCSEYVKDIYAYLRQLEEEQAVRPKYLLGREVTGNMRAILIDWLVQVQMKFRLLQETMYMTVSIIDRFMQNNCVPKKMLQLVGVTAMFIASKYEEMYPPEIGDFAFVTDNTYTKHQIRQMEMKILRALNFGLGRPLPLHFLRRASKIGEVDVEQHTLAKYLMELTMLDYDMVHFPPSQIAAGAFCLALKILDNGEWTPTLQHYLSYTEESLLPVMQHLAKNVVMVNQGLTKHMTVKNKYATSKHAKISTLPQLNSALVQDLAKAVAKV
Nature of the data set: in vitro kinase assay of purified cdk1. Type of data set: biochemical. Conditions: 10 nM.
Text: as §1

A further data set relates to CK2. Nature of the data set: CK2 activity in nuclear extracts of treated H358 or H23 cells. Type of data set: cell-based, human.
Another data set deals with T4, CK2 protein (α subunit) (Homo sapiens, UniProt P68400).
T4 construct: endogenous in cells; host or cells: H23 cells (lysates)
T4 sequence (P68400 whole entry): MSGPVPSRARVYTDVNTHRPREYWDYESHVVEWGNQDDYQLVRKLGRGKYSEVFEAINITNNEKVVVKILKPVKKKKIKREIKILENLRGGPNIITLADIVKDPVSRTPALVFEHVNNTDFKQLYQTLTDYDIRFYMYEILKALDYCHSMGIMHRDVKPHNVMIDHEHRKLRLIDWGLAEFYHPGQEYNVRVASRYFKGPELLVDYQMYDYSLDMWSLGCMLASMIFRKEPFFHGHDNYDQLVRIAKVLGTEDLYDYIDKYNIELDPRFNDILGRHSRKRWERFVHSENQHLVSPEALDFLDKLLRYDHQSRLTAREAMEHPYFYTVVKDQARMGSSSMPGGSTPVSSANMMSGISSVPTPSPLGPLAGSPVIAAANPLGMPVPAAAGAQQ
Briefly: Western analysis of CK2 protein in lysates of treated cells. Type of data set: cell-based. The following applies: H23 cells, 72 hours.

For data set [1], the system named is ARF/topoisomerase I complex. Nature of the data set: topo I immunoprecipitation followed by ARF Western in treated cells. Type of data set: cell-based, human. Conditions: H23 cells treated with CK2 activator.
A further data set concerns topoisomerase I. Briefly: topoisomerase I plasmid relaxation assay with nuclear extracts of treated cells. Type of data set: cell-based, human. Conditions: 72 hours after treatment.
For the next data set, the system named is H23 cells. Briefly: cell viability assay with camptothecin, H23. Type of data set: cell-based, human. The procedure: (§2) Control cells received no pretreatment. […] CK2 activator treatment was for the duration of the assay. Cell viability was scored 3 days post-start of camptothecin treatment.
(§3) Viability assays were performed 24 hours post-vector treatment by exposing cells for 24 hours to increasing doses of camptothecin (a topoisomerase I inhibitor) in triplicate in a 96-well viability assay, and assaying them for viability 5 days post-start of vector treatment (FIG. 5B). For each growth curve, cell viabilities were normalized to the viability of cells treated with vector only (no camptothecin), to enable a direct visualization of the sensitization effect.
Studies of a large panel of cell lines have shown that cell lines with overexpressed CK2 (FIGS. 11B1-B3 and 11C1-C3) display hyper serine phosphorylation of topo I (FIG. 11D) that correlates with sensitivity to camptothecin (FIG. 11A). […] Cells were plated at 2000 cells per well and allowed to attach. Triplicate wells were then treated with the indicated doses of camptothecin for 18 hours, and monitored for viability 3 days post-start of treatment. Viability is represented as a % of control, untreated, cell viability. Referring to FIGS. 11B1-B3, PKC (B1), cdk1 (B2), and CK2 (B3) levels in cancer cell lines: Cell lysates were prepared from the indicated cancer cell lines and assayed for enzymatic activities, or evaluated by Western analysis for total PKC, cdk1, or CK2 protein levels. Actin levels served as a control (same control for PKC, cdk1, and CK2). Referring to FIGS. 11C1-C3 PKC (C1), cdk1 (C2), and CK2 (C3) levels in normal cell lines, compared to H358 and H23: Cell lysates were prepared from the indicated cell lines and evaluated as before. Numbers below Western blots indicate digital reading of band intensities of PCK, cdk1, or CK2 Western blots, relative to H358. Referring to FIG. 11D, topo-I immunoprecipitation followed by topo-I Western (top row) or phosphoserine Western (bottom row). Numbers below Western blot are digital readings of ser-P band intensities relative to H358.

Data set [2] deals with topo I phosphoserine 506 epitope. Nature of the data set: Western of phosphoserine 506 epitope of topo I in treated cells. Type of data set: cell-based, human.
The subject of another data set is purified PKC. Briefly: in vitro kinase assay of purified PKC. Conditions: 10 nM.
The next data set has as its system CK2α transcription. Nature of the data set: RT-PCR of CK2α mRNA in treated H23 cells. Conditions: 10 nM, 3 days.
For data set [3], the target named is T5, cdk1 (Homo sapiens, UniProt P06493). Briefly: endogenous cdk1 activity in lysates of treated H23 cells. Type of data set: cell-based. Details: endogenous in cells; host or cells: H23 cells (lysates). Conditions: H23 cells treated with 10 nM, three day assay.
Text: as §1
Target sequence in this assay (P06493 whole entry): as the sequence (P06493 whole entry, species assumed) above
Target sequence in this assay (P14635 whole entry partner): as the sequence (P14635 whole entry partner, species assumed) above

Data set [4] deals with PKC. Briefly: endogenous PKC activity in lysates of treated H23 cells. The following applies: H23 cells treated with 10 nM, three day assay.
Data set [5] relates to topo I serine phosphorylation. Briefly: topo I immunoprecipitation followed by phosphoserine Western in treated cells. Conditions: digital quantitation of band intensities.
The test system of another data set is H358 cells. Nature of the data set: cell viability assay with camptothecin, H358. Type of data set: cell-based, human. The following applies: pretreatment then camptothecin 18 hours, 3-day viability. The method, then: as §2, §3
Studies of a large panel of cell lines have shown that cell lines with overexpressed CK2 (FIGS. 11B1-B3 and 11C1-C3) display hyper serine phosphorylation of topo I (FIG. 11D) that correlates with sensitivity to camptothecin (FIG. 11A). […] Triplicate wells were then treated with the indicated doses of camptothecin for 18 hours, and monitored for viability 3 days post-start of treatment. […] Referring to FIGS. 11B1-B3, PKC (B1), cdk1 (B2), and CK2 (B3) levels in cancer cell lines: Cell lysates were prepared from the indicated cancer cell lines and assayed for enzymatic activities, or evaluated by Western analysis for total PKC, cdk1, or CK2 protein levels. […] Numbers below Western blot are digital readings of ser-P band intensities relative to H358.

Data set [6] deals with PKC. The following applies: cited from earlier work.
Data set [7] has as its target T5, cdk1. Conditions: cited from earlier work.
Target sequence in this assay (P06493 whole entry, species assumed): as the sequence (P06493 whole entry, species assumed) above
Target sequence in this assay (P14635 whole entry partner, species assumed): as the sequence (P14635 whole entry partner, species assumed) above

The structures appear in SMILES notation.

T2 sequence (P68400 whole entry): as the sequence (P68400 whole entry) above
T1 sequence (P68400 whole entry): as above
T1 sequence (P67870 whole entry partner): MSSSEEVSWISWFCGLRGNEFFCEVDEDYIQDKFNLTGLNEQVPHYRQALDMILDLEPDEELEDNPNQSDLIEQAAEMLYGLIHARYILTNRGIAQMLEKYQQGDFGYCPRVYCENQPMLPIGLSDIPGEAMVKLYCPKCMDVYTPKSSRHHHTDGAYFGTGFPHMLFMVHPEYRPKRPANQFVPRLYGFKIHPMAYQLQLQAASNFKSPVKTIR

On to `CCn1cnc(C(N)=O)c1C(N)=O` [CK2 activator], for which the “stimulation of purified CK2 holoenzyme activity” value at purified CK2 holoenzyme is on record as ~6 fold. Moreover, the “stimulation of CK2α catalytic subunit activity” value at CK2α catalytic subunit was ~6 fold. Besides, the “effect on purified cdk1 activity” value at purified cdk1 is on record as “no effect”. Besides, the “increase in CK2 activity relative to untreated cells” value in the data set on CK2 (H23 cells, 10 nM for duration of assay) was 4 fold. In addition, the “increase in CK2 activity” value with CK2 (H358 cells, similar treatment (data not shown)) was determined as 10%. The CK2 protein accumulation result at CK2 protein (α subunit) is recorded as “enhances the accumulation of CK2 protein”. The “p14ARF/topo I complex formation” value in data set [1] is reported as “complex formation occurs”. In the data set on topoisomerase I (H23 cells, 0.75 μg lysates protein per reaction), the “conversion of supercoiled plasmid to relaxed form by nuclear extract” value is “converts virtually all of the supercoiled form to relaxed form”. In addition, the “effect on cell viability (activator alone)” value in the data set with H23 cells (10 nM) was “no effect on cell viability”. Moreover, the “change of cellular response to camptothecin” value with H23 cells (10 nM activator for duration of assay, camptothecin 18 hours, 3-day viability) is given as “more sensitive to camptothecin”. The “lowest dose that could activate CK2 while having no effect on cell viability” value in the data set on H23 cells (range of 5-100 nM tested) is on record as 10 nM. Also, the “cellular levels of the phosphoserine 506 epitope” value in [2] (H23 cells treated as in FIG. 13B) is given as “induces cellular levels of the phosphorylated epitope”. Moreover, the “effect on purified PKC activity” value in the data set on purified PKC is listed as “no effect”. For the same compound, the CK2α transcription result with CK2α transcription is “not CK2α transcription”. For the same compound, the “effect on endogenous cdk1 activity” value at cdk1 [3] was “no effect”. For the same compound, the “effect on endogenous PKC activity” value in the data set with PKC [4] is recorded as “no effect”. The “increase in topo I phosphorylation relative to untreated H23 cells” value in [5] (H23 cells) is ~4.7 fold.
`Brc1c(Br)c(Br)c2[nH]nnc2c1Br` [TBB, 4,5,6,7-tetrabromobenzotriazole]: in the data set on topoisomerase I (H358 cells, 0.75 μg lysate per reaction), the “conversion of supercoiled plasmid to relaxed form by nuclear extract” value is listed as “essentially none is converted”. Also, the “change of cellular response to camptothecin” value with H358 cells is reported as “more resistant to camptothecin”. Moreover, the “cellular levels of the phosphoserine 506 epitope” value in data set [2] (H358 cells treated as in FIG. 13A) was “suppresses cellular levels of the phosphoserine epitope”. The “effect on PKC” value with PKC [6] was “minimal effects”. In addition, the “effect on cdk1” value on cdk1 [7] is “minimal effects”. For the same compound, the “topo I serine phosphorylation, % of untreated H358 cells” value in data set [5] (H358 cells) is recorded as “about 10%”.
